Results published in patent EP0728482A2, “Use of hcp specific compounds to enhance erythropoiesis” (SMITHKLINE BEECHAM CORPORATION, priority 1995, dated 1996).

Biological target: T1, human src SH2 domain (Homo sapiens, UniProt P12931)
T1 construct: made in house; host or cells: E. coli AR120
Experiment: ELISA-based SH2 domain / pY peptide binding assay, src SH2 domain
Protocol: The inhibitory activity of compounds at the different human SH2 domains was determined in vitro using SH2 domains expressed as fusion proteins in E. coli. The SH2 domains used herein were the human forms of the src SH2 domain, Grb2 SH2 domain, lck SH2 domain, fyn SH2 domain, SH-PTP2 SH2 domain, p85 SH2 domain and hcp SH2 domain.
The fusion proteins containing the src, lck and hcp SH2 domains were expressed as the general sequence: DET1-DET2-spacer-ek-SH2, where DET1, DET2, spacer, ek and SH2 are as described below. DET1 ("defined epitope tag 1") (SEQ ID NO: 1) is an 11 amino acid sequence found in the Human Immunodeficiency Virus Type 1 (HIV-1) envelope protein gp120 (or gp160). Monoclonal antibodies to various epitopes of HIV-1 gp120 (or gp 160) are known in the art, see, for example U.S. Patent 5,166,050. One preferred example is monoclonal antibody 178.1 (see, e.g., Thiriart et al., J. Immunol., 143:1832-1836 (1989)), which was prepared by immunization of mice with a yeast-expressed HIV-1 gp160 molecule from strain BH10 (Ratner et al., Nature, 313:277-284 (1985)). This tag was used for detection of expression (by Western blot), for purification of the protein (by affinity chromatography), and for configuring assays in which the fusion protein was captured or immobilized using the 178.1 antibody. DET2 is a hexa-histidine sequence tag (SEQ ID NO: 2) which binds to nickel-containing resins and was used for purification purposes. Spacer (SEQ ID NO: 3) was utilized to design a BamH1 restriction site at the indicated position of the construct. The term -ek-refers to a recognition sequence (SEQ ID NO: 4) for the enterokinase protease which provides for the optional removal of the tags from the SH2 domain, thus producing an SH2 domain that contains no extraneous amino acids. SH2 domains which contain no extraneous amino acids are preferable to tagged protein for crystallography studies. SH2 refers to the SH2 domains of different proteins.
Procedure 2: Cloning, expression and purification of human src SH2 domain containing tags and an enterokinase proteolytic cleavage site (DET1-DET2-spacer-ek-src SH2).
A DNA sequence encoding protein ek-src SH2 was PCR amplified from a cDNA clone containing the human src gene (c-src SH2 DNA sequence identical to that described in Takeya,T. and Hanafusa, H, 1983 Cell 32:881-890) using the following primers: [formula]
The PCR product was digested with BamHI and XbaI, followed by isolation of the digested fragment on an agarose gel. The fragment was ligated into BamHI-XbaI-digested expression vector containing the tagged chicken src gene DET1-DET2-spacer-SH2 described in Procedure 1 above. In that vector, the BamHI site is located between the coding regions for DET2 and SH2, and the XbaI site is located after the 3' end of the SH2 coding region. The ligation reaction was used to transform E. coli MM294cI^+. The construct DET1-DET2-spacer-ek-src SH2 was confirmed by DNA sequencing (SEQ ID NO: 5) and induced in E. coli strain AR120 as described in Procedure 1 above. A Coomassie-Blue-stained, Western-blot-positive induced protein band with an apparent molecular weight of 16,000 was observed after nalidixic acid induction.
Cells were lysed at neutral pH by sonication in the presance of lysozyme. After centrifugation, the soluble extract was chromatographed on a Ni^++NTA column. After washing the column with equilibration buffer (Tris buffer pH 8 containing 0.5 M Nacl) and the same buffer containing 15 mM imidazole, the protein was eluted in highly purified form with 25 mM imidazole in equilibration buffer.
The binding assays for the SH2 domains and pY peptides were performed in an ELISA-based 96 well plate assay. […]

T1 sequence (P12931 148-251): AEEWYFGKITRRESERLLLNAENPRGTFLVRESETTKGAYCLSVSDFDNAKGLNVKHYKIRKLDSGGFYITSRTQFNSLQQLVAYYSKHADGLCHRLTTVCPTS

Ki (Ki calculated from IC50 with the expanded equation): 13 µM | IC50 (inhibition of binding of 0.1 uM biotinylated pY peptide to SH2 domain fusion protein): 20 µM
SMILES: CCCCCCNC(=O)[C@H]1CC[C@H](CNC(=O)c2ccc(C(=O)c3ccc(C(=O)O)cc3)cc2)CC1 [Compound 6, 4-carboxy-benzophenone-4-carboxamido-trans-4-methyl-cyclohexyl-N-hexyl carboxamide]
